Here are results for 7 compounds from PMC9691607 (Journal of medicinal chemistry, 2022).

SMILES strings stand for the structures.

Experiment [1] deals with MOLM13. The experiment in a line: Combinatorial drug screening with decitabine, MOLM13. The class given is cell-based. The note with it: combination with decitabine, MOLM13, 72 h co-treatment.
Experiment [2] deals with HL60. The experiment in a line: Combinatorial drug screening with decitabine, HL60. Conditions: combination with decitabine, HL60, 72 h co-treatment. The class given is cell-based.
For experiment [3], the system named is leukemia cell lines. It counts as cell-based. The note with it: broad range of leukemia cell lines from therapy refractory subgroups; two healthy human fibroblast controls; values in Supplementary Table S1.
The test system of experiment [4] is HL60 cells. Briefly: Annexin V / PI apoptosis assay. It counts as cell-based. Conditions: 1 μM or 5 μM, 48 h, annexin V and propidium iodide, flow cytometry.
In experiment [5] the test system is HL60 cells. The experiment in a line: Immunoblotting of acetyl-α-tubulin and acetyl-histone H3. The class given is cell-based. Conditions: 24 h; for acetylation of histone 3 (Ac-H3) / acetylation of α-tubulin: IC12.5-IC75 concentrations (ricolinostat at its IC50).
For experiment [6], the system named is Jurkat. The experiment in a line: Combinatorial drug screening with decitabine, Jurkat. The class given is cell-based. Conditions: combination with decitabine, 72 h co-treatment.
The test system of experiment [7] is HAL01. Briefly: Combinatorial drug screening with decitabine, HAL01. The class given is cell-based. The note with it: combination with decitabine, HAL01, 72 h co-treatment.
For experiment [8], the target named is T1, human HDAC6 (Homo sapiens, UniProt Q9UBN7).
T1 sequence (Q9UBN7 1-1215): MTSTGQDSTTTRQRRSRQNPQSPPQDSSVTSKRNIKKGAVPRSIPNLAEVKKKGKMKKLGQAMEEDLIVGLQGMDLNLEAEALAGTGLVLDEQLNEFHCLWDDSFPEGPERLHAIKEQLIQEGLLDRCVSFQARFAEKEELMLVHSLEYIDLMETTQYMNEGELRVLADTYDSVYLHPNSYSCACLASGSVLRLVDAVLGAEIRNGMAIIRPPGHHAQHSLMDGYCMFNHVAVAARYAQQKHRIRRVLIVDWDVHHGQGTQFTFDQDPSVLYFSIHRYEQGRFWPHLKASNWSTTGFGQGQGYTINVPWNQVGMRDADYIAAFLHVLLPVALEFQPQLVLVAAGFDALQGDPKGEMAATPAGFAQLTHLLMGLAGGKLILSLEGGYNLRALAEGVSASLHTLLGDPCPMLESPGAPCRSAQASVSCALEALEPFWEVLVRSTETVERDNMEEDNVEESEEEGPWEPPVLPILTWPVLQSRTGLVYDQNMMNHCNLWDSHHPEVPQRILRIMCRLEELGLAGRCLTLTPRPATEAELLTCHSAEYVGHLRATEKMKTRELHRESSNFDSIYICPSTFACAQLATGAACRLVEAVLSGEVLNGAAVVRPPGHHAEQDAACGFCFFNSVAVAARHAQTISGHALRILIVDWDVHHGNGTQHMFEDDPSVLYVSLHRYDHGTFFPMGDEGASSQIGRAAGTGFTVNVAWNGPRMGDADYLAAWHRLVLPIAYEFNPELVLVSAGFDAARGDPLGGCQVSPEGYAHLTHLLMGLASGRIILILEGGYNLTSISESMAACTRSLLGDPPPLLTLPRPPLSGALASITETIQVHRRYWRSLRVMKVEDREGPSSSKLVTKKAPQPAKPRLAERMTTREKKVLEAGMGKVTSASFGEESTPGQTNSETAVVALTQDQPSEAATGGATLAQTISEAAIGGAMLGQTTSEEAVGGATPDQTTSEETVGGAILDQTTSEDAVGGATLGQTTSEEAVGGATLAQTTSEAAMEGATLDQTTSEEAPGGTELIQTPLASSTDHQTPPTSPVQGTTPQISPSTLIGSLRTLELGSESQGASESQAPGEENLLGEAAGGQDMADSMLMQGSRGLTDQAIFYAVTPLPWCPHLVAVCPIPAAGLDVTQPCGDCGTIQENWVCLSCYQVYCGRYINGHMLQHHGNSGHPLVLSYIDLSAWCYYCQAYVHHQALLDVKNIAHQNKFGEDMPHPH
The experiment in a line: HDAC6 inhibition assay. The class given is biochemical. The note with it: selectivity index HDAC1/6.

The test system of experiment [9] is HDAC6. The note with it: ref [47], cited from earlier work; for IC50: read-out: HDAC6 IC50, Sandrone et al., different substrates; for SI (IC50 (HDAC1)/IC50 (HDAC6)): selectivity index HDAC1/6, Sandrone et al.
Experiment [10] concerns HDAC1. Conditions: read-out: HDAC1 IC50; Sandrone et al., different substrates; ref [47]; cited from earlier work.
Experiment [11] has as its target HDAC4 (Homo sapiens, UniProt P56524). The experiment in a line: HDAC4 inhibition assay. The class given is biochemical.

Chain of HDAC4 (P56524 627-1084 limits assumed): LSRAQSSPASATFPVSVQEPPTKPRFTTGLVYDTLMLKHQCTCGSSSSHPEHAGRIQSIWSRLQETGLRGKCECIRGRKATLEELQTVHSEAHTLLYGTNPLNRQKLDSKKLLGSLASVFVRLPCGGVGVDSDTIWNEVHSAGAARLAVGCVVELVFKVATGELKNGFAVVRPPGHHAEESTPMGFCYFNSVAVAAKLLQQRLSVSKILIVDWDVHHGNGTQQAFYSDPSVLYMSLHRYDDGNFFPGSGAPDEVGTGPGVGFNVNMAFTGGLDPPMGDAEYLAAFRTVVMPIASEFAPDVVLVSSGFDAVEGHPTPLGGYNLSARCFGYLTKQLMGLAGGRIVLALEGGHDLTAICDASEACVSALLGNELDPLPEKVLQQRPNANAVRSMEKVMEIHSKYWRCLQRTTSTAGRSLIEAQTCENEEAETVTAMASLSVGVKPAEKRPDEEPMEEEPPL

For `CN(C)c1ccc(C(=O)N(CC(=O)NCc2ccccc2)Cc2ccc(C(=O)NO)cc2F)cc1` [Compound 10h, 4-({N-[(Benzylcarbamoyl)methyl]-1-[4-(dimethylamino)phenyl]formamido}methyl)-3-fluoro-N-hydroxybenzamide], the ZIP synergy score in experiment [1] is on record as 27.44; in experiment [2], 25.08; in experiment [6], −0.87; in [7] it was 1.18. In addition, in experiment [3], the “cellular viability of leukemia cell lines” value was “markedly outperformed CI994 and ricolinostat”. The induction of apoptosis entry in experiment [4] is “significant (p < 0.0001) increase in apoptotic cells”. For the same compound, in experiment [5], the “acetylation of histone 3 (Ac-H3)” value was “dose-dependent increase”. In experiment [5], the “acetylation of α-tubulin” value was “dose-dependent increase”. Besides, the “acetylation of H3 on co-administration with decitabine” value in experiment [5] (combination with decitabine vs mono-treatment) is given as “strong induction of acetylation of H3 as compared to mono-treatment”.

`O=C(CCCCCCNC(=O)c1cnc(N(c2ccccc2)c2ccccc2)nc1)NO` [Ricolinostat, ricolinostat, reference compound]: in experiment [5], the “acetylation of histone 3 (Ac-H3)” value is “lower Ac-H3 levels than observed for 10h” and the “acetylation of α-tubulin” value is “prominent acetylation of α-tubulin”.

As to `Cc1cc(C)cc(C(=O)N(CC(=O)NCc2ccccc2)Cc2ccc(C(=O)NO)cc2F)c1` [Compound 10g, 4-({N-[(Benzylcarbamoyl)methyl]-1-(3,5-dimethylphenyl)formamido}methyl)-3-fluoro-N-hydroxybenzamide], the “SI (IC50 (HDAC1)/IC50 (HDAC6))” value in [8] is reported as 6–24.

Take `CC(C)c1ccccc1C(=O)N(CC(=O)NC(C)(C)C)Cc1ccc(C(=O)NO)cc1F` [Compound 10p, 4-({N-[(tert-Butylcarbamoyl)methyl]-1-[2-(propan-2-yl)phenyl]formamido}methyl)-3-fluoro-N-hydroxybenzamide]: in [1], the ZIP synergy score came out at 7.18. Further, in experiment [2], the ZIP synergy score is recorded as 7.78. Also, the “cellular viability of leukemia cell lines” value in experiment [3] is “IC50 values ranging in the high micromolar concentration”. In experiment [4], the induction of apoptosis result is recorded as “weaker (in comparison to 10h) although significant (p < 0.05) apoptosis induction”. Also, in [5], the “acetylation of histone 3 (Ac-H3)” value is on record as “no effect on Ac-H3 levels” and the “acetylation of α-tubulin” value was “induced acetylation of α-tubulin”.

`O=C(NO)c1cccc(F)c1` [3-fluoro-N-hydroxybenzamide]: the 50% inhibitory concentration (IC50) (usually the concentration that inhibits the measured activity by half) is 453 nM in experiment [9] and 29400 nM in experiment [10]. Moreover, the “SI (IC50 (HDAC1)/IC50 (HDAC6))” value in [9] is given as 65.

`CN(C)c1ccc(C(=O)N(CC(=O)NCc2ccccc2)Cc2ccc(C(=O)NO)cc2)cc1` [DDK137] registered a 50% inhibitory concentration (IC50) in experiment [11] of 2670 nM.

On to `O=C(NO)c1ccccc1` [N-hydroxybenzamide], for which, in experiment [9], the IC50 is 1340 nM and the “SI (IC50 (HDAC1)/IC50 (HDAC6))” value was 19. Also, the IC50 in experiment [10] is 25400 nM.
